The results in this text go back to PMC6179058, “Design, synthesis, and biological evaluation of novel iso-flavones derivatives as H3R antagonists” (Journal of Enzyme Inhibition and Medicinal Chemistry, 2018).

Molecules are shown by their SMILES.

The test deals with T1, human H3R (histamine receptor 3) (Homo sapiens, UniProt Q9Y5N1).
T1 construct: gene HRH3; human H3R fused via TEV protease site to Gal4-VP16 transcription factor; stably expressed in H3-bla U2OS cells (Invitrogen) with beta-arrestin/TEV protease fusion and UAS beta-lactamase reporter
Put plainly: beta-arrestin/TEV beta-lactamase FRET reporter assay, antagonist mode. It counts as cell-based. The following applies: read-out: Inhibit rate (%) at 10 μM. From the text: beta-arrestin/TEV beta-lactamase FRET reporter assay, antagonist mode on human H3R (histamine receptor 3)
(A reporter such as luciferase makes a cellular process visible.)

T1 sequence (Q9Y5N1 whole entry, the tested form may be a part): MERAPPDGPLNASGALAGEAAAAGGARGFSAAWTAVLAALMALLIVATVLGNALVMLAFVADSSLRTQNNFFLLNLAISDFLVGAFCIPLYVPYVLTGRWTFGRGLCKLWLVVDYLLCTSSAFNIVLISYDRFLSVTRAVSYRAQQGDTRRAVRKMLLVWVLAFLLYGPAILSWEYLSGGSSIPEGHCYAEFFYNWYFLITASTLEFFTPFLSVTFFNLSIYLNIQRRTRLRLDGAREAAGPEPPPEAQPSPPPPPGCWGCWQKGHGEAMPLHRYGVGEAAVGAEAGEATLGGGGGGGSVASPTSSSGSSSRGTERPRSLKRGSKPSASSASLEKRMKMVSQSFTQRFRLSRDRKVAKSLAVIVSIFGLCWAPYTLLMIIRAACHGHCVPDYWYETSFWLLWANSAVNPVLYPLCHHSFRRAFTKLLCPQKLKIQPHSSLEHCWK

For `COc1ccc(-c2coc3c(CN4CCCC4)c(O)ccc3c2=O)cc1` [2m, 7-hydroxy-3-(4-methoxyphenyl)-8-(pyrrolidin-1-ylmethyl)-4H-chromen-4-one], the inhibition at 10 µM turned out to be 14.6%.

As for `O=c1c(-c2ccc(O)cc2)coc2c(CN3CCCC3)c(O)ccc12` [2f, 7-hydroxy-3-(4-hydroxyphenyl)-8-(pyrrolidin-1-ylmethyl)-4H-chromen-4-one], the inhibition at 10 µM worked out at 18.7%.
